What was measured:
Experiment in all cases: KINOMEscan competition binding
Conditions in all cases: compound 10.0 µM
[1] = system: ABL1 (human), P00519 [F317I]
AKT3 (human) = AKT3 (human) (UniProt Q9Y243)
AURKA (human) = AURKA (human) (UniProt O14965)
CDKL3 (human) = CDKL3 (human) (UniProt Q8IVW4)
DAPK2 (human) = DAPK2 (human) (UniProt Q9UIK4)
DDR1 (human) = DDR1 (human) (UniProt Q08345)
EPHA4 (human) = EPHA4 (human) (UniProt P54764)
EPHA6 (human) = EPHA6 (human) (UniProt Q9UF33)
ERBB3 (human) = ERBB3 (human) (UniProt P21860)
ERN1 (human) = ERN1 (human) (UniProt O75460)
GRK7 (human) = GRK7 (human) (UniProt Q8WTQ7)
ICK (human) = ICK (human) (UniProt Q9UPZ9)
INSR (human) = INSR (human) (UniProt P06213)
MAK (human) = MAK (human) (UniProt P20794)
MAP4K2 (human) = MAP4K2 (human) (UniProt Q12851)
MAPK14 (human) = MAPK14 (human) (UniProt Q16539)
MAST1 (human) = MAST1 (human) (UniProt Q9Y2H9)
MYO3B (human) = MYO3B (human) (UniProt Q8WXR4)
NEK1 (human) = NEK1 (human) (UniProt Q96PY6)
NEK2 (human) = NEK2 (human) (UniProt P51955)
NUAK2 (human) = NUAK2 (human) (UniProt Q9H093)
[2] = system: PIK3CA (human), P42336 [H1047L]
PIK3CD (human) = PIK3CD (human) (UniProt O00329)
PIM2 (human) = PIM2 (human) (UniProt Q9P1W9)
PRKX (human) = PRKX (human) (UniProt P51817)
PRPF4B (human) = PRPF4B (human) (UniProt Q13523)
RIOK3 (human) = RIOK3 (human) (UniProt O14730)
SBK1 (human) = SBK1 (human) (UniProt Q52WX2)
SIK1 (human) = SIK1 (human) (UniProt P57059)
SRPK3 (human) = SRPK3 (human) (UniProt Q9UPE1)
STK17B (human) = STK17B (human) (UniProt O94768)
TAOK3 (human) = TAOK3 (human) (UniProt Q9H2K8)
TBK1 (human) = TBK1 (human) (UniProt Q9UHD2)
ZAP70 (human) = ZAP70 (human) (UniProt P43403)
Sequence of ZAP70 (human) (P43403 whole entry, looked up): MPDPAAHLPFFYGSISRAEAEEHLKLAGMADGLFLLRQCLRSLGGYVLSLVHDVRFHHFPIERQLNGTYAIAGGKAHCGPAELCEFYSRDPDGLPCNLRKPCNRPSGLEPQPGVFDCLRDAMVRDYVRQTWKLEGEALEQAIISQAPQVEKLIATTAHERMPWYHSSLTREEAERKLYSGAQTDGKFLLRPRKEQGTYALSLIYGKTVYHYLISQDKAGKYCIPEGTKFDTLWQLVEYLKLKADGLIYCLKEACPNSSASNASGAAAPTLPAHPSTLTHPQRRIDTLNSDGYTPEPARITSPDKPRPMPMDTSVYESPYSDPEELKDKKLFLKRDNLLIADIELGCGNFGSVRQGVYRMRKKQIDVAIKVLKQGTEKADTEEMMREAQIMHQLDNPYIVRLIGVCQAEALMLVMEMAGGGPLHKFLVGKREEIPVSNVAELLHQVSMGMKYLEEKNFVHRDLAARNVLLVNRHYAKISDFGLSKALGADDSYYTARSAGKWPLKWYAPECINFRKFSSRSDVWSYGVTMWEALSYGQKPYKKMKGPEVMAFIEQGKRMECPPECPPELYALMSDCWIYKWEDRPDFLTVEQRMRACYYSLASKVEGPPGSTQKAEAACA

Sequence of DDR1 (human) (Q08345 whole entry, looked up): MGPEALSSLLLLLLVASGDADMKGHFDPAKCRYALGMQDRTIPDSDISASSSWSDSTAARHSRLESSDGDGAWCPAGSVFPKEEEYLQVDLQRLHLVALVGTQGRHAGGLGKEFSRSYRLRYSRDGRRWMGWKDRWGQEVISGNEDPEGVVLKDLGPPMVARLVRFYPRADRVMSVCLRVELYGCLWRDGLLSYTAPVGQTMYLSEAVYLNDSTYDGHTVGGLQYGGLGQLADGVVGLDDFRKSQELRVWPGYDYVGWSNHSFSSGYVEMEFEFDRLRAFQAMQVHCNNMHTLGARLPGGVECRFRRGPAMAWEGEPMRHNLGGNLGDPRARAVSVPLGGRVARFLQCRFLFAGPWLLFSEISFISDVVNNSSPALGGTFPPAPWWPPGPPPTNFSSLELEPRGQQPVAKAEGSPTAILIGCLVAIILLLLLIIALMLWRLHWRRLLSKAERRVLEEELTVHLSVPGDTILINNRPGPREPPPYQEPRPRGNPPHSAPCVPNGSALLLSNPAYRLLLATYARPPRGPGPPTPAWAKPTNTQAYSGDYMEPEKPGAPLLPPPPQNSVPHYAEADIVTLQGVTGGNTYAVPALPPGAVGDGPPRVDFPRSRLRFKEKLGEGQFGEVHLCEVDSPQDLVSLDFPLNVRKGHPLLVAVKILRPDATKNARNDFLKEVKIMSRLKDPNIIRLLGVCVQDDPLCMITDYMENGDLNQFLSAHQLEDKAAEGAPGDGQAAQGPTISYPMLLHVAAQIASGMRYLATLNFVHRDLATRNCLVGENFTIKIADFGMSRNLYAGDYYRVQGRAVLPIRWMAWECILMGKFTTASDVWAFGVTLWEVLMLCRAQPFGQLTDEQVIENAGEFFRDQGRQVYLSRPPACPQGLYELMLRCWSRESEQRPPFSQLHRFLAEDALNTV
Sequence of ABL1 (human), P00519 [F317I] (P00519 whole entry F317I, looked up): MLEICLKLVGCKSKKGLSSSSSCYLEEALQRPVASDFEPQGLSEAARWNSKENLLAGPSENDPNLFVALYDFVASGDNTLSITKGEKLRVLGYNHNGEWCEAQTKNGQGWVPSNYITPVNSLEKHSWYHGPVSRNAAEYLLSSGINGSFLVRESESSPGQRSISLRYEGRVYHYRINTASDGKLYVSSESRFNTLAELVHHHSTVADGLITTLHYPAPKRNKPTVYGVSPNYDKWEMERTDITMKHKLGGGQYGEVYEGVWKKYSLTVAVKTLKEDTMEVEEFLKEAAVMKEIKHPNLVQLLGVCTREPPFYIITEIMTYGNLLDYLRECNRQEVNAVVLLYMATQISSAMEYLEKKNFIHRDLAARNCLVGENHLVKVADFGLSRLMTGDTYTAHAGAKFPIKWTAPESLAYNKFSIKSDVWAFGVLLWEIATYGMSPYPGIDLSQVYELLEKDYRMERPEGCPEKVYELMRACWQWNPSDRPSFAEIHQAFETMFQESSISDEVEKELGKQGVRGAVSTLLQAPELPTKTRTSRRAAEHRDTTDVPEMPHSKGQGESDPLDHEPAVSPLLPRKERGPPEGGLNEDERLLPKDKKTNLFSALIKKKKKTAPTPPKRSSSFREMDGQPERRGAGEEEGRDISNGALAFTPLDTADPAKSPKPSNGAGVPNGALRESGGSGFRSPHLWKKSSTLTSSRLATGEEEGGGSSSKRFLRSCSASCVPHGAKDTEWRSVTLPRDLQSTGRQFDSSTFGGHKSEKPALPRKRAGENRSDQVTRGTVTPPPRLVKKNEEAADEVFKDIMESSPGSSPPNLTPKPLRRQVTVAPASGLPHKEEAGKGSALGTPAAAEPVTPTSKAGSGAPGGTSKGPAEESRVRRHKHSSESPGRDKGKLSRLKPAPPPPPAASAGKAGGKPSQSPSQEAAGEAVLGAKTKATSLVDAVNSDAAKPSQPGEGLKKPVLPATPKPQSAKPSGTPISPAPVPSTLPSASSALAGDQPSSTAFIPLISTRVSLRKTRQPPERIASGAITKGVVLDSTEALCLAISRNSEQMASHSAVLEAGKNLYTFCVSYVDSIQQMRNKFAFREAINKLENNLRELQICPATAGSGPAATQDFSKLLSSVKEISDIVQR
Sequence of PIM2 (human) (Q9P1W9 whole entry, looked up): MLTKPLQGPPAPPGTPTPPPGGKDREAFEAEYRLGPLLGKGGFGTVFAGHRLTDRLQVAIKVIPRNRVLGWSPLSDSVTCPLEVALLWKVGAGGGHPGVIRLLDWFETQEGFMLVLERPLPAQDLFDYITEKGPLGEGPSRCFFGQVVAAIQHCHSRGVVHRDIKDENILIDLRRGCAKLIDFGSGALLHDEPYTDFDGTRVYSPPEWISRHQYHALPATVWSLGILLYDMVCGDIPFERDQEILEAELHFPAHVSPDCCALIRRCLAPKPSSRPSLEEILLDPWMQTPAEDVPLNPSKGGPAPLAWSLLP
Sequence of PRKX (human) (P51817 whole entry, looked up): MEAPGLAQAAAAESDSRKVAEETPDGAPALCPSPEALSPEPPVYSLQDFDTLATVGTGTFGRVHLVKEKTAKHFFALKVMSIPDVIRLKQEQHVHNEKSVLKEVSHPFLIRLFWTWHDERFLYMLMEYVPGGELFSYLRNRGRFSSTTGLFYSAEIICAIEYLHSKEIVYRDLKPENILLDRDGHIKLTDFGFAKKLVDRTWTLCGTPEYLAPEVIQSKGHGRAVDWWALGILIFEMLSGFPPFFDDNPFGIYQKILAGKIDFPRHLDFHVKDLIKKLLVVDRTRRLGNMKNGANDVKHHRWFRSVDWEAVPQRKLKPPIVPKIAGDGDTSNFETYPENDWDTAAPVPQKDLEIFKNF
Sequence of INSR (human) (P06213 whole entry, looked up): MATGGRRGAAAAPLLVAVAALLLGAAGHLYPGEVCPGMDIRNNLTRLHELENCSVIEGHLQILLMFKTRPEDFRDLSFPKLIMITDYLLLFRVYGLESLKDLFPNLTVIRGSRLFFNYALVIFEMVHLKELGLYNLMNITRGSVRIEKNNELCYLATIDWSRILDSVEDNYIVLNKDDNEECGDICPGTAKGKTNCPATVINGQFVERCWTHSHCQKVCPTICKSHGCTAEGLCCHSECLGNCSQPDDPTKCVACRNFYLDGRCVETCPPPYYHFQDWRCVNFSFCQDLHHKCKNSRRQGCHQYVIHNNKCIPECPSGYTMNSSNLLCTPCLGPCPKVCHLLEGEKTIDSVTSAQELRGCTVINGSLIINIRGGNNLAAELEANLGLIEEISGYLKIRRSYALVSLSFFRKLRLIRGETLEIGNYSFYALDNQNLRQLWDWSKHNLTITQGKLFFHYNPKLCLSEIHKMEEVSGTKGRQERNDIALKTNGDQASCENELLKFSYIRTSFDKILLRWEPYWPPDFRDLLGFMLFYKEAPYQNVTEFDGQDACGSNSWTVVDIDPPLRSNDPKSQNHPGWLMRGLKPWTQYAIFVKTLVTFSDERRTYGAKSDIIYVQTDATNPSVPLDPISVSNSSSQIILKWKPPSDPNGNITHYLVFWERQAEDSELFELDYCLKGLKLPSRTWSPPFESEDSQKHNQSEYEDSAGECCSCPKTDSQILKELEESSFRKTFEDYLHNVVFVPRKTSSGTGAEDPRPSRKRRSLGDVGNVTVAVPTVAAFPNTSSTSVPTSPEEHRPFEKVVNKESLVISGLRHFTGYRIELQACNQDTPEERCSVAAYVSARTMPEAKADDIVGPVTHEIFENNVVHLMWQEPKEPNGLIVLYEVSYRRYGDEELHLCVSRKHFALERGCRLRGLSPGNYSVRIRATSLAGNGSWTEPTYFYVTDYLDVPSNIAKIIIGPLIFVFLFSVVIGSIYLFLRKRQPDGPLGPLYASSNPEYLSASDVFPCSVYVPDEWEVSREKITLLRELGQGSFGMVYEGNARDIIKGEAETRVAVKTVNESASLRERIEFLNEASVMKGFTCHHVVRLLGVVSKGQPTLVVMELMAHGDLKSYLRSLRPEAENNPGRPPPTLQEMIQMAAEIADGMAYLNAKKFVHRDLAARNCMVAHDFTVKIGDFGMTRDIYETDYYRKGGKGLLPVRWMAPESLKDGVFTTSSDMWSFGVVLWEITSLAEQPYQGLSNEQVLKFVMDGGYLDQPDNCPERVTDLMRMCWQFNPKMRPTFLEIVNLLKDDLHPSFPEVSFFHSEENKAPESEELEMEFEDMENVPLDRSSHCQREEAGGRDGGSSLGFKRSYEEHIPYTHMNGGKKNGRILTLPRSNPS
Sequence of MAPK14 (human) (Q16539 whole entry, looked up): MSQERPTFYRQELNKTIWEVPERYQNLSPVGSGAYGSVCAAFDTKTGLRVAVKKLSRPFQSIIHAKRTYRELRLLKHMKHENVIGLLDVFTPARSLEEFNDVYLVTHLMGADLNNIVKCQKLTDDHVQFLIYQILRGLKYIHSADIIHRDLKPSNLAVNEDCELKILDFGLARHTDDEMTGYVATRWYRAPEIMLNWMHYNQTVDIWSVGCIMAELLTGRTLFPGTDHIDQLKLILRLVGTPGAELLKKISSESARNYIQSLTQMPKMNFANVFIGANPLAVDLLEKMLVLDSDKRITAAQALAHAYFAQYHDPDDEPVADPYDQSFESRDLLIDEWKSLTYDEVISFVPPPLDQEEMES

SMILES | kinase still bound, per cent of control [1] [%] | kinase still bound, per cent of control (AKT3 (human)) [%] | kinase still bound, per cent of control (AURKA (human)) [%] | kinase still bound, per cent of control (DAPK2 (human)) [%] | kinase still bound, per cent of control (DDR1 (human)) [%] | kinase still bound, per cent of control (EPHA4 (human)) [%] | kinase still bound, per cent of control (EPHA6 (human)) [%] | kinase still bound, per cent of control (INSR (human)) [%] | kinase still bound, per cent of control (MAP4K2 (human)) [%] | kinase still bound, per cent of control (MAPK14 (human)) [%] | kinase still bound, per cent of control (MYO3B (human)) [%] | kinase still bound, per cent of control (NEK1 (human)) [%] | kinase still bound, per cent of control (NEK2 (human)) [%] | kinase still bound, per cent of control (NUAK2 (human)) [%] | kinase still bound, per cent of control (PIM2 (human)) [%] | kinase still bound, per cent of control (PRKX (human)) [%] | kinase still bound, per cent of control (RIOK3 (human)) [%] | kinase still bound, per cent of control (SIK1 (human)) [%] | kinase still bound, per cent of control (STK17B (human)) [%] | kinase still bound, per cent of control (ZAP70 (human)) [%] | other results
Cc1cn(-c2cc(C(=O)Nc3ccc(C)c(NC(=O)c4ccno4)c3)cc(C(F)(F)F)c2)cn1 | 0.95 | 100 | 100 | 100 | 0.1 | 4 | 100 | 100 | 100 | 0.3 | 100 | 100 | 100 | 100 | 100 | 100 | 100 | 100 | 100 | 100 | kinase still bound, per cent of control (CDKL3 (human)): 100%; kinase still bound, per cent of control (ERBB3 (human)): 100%; kinase still bound, per cent of control (ERN1 (human)): 100%; kinase still bound, per cent of control (GRK7 (human)): 100%; kinase still bound, per cent of control (ICK (human)): 100%; kinase still bound, per cent of control (MAK (human)): 100%; kinase still bound, per cent of control (MAST1 (human)): 100%; kinase still bound, per cent of control [2]: 100%; kinase still bound, per cent of control (PIK3CD (human)): 100%; kinase still bound, per cent of control (PRPF4B (human)): 100%; kinase still bound, per cent of control (SBK1 (human)): 100%; kinase still bound, per cent of control (SRPK3 (human)): 100%; kinase still bound, per cent of control (TAOK3 (human)): 100%; kinase still bound, per cent of control (TBK1 (human)): 100%
COc1cc(C)c(Sc2cnc(NC(=O)c3ccc(CNC(C)C(C)C)cc3)s2)cc1C(=O)N1CCN(C(C)=O)CC1 (stereo not drawn) | 100 | 100 | 100 | 28 | 100 | 100 | 11 | 5.1 | 100 | 100 | 100 | 100 | 18 | 25 | 100 | 100 | 100 | 100 | 100 | 100 | kinase still bound, per cent of control (PIK3CD (human)): 100%; kinase still bound, per cent of control (SRPK3 (human)): 100%; kinase still bound, per cent of control (TAOK3 (human)): 3.6%
COc1ccc(N(C(=O)Oc2cc(C(=O)Nc3cccc(C(F)(F)F)c3)ccc2C)c2ccnc(Nc3ccc(N4CCN(C)CC4)cc3)n2)c(OC)c1 | – | 100 | 100 | 100 | 0.55 | 2.4 | 0.35 | 100 | – | 14 | 100 | 100 | 100 | 100 | 100 | 100 | 100 | 0.1 | 100 | 100 | –
COc1cc(N2CCC(C(N)=O)CC2)ccc1Nc1nc(N)c(Cl)c(Nc2ccccc2S(=O)(=O)C(C)C)n1 | 4.8 | 100 | 100 | 100 | 100 | 100 | 100 | 0.05 | 100 | 100 | 24 | 100 | 100 | 100 | 100 | 100 | 100 | 100 | 100 | 100 | kinase still bound, per cent of control (PIK3CD (human)): 100%; kinase still bound, per cent of control (SRPK3 (human)): 100%; kinase still bound, per cent of control (TAOK3 (human)): 100%

From the kinase profiling compilation of Christmann-Franck et al. (2016)
